From patent US20020142347A1, “Biosensor” (BIOSENSOR ApS, priority 2000, published 2002)
Substitutions are numbered along the chain they refer to. Names and notes keep the numbering of the source. Values joined by “and” are separate entries in the source; they are usually repeats but may differ in a detail not shown here. Equal entries are not always repeated. Where two headings read alike, the source gives them in different places.

B1: FACI-53: badan derivative of A53C-bovine ACBP (Fluorescent Acyl-CoA Indicator 53) (conjugate, UniProt P07107 2-87, looked up, variant A53C)
Acyl-CoA-binding protein: SQAEFDKAAEEVKHLKTKPADEEMLFIYSHYKQATVGDINTERPGMLDFKGKCKWDAWNELKGTSKEDAMKAYIDKVEELKKKYGI
modifications: badan label
B2: FACI-24: badan derivative of M24C-bovine ACBP (Fluorescent modified Acyl-CoA Indicator 24) (conjugate, UniProt P07107 2-87, looked up, variant M24C)
Acyl-CoA-binding protein: B1 Acyl-CoA-binding protein with M24C, C53A
modifications: badan label

Tests used:
[1] = biological target: T1, FACI-24 (Bos taurus, UniProt P07107, M25C); experiment: Fluorescence titration equilibrium binding analysis of CoA and acyl-CoA esters to FACI-24; set-up: species or system bovine
T1 construct: made in house; host or cells: E. coli BL21(DE3)pLysS, pET3a vector
T1 sequence (P07107 2-87 M25C): B1 Acyl-CoA-binding protein with M24C, C53A
Description: Development of a mathematical expression describing the relationship between acyl-CoA concentration and FACI-24 fluorescence was performed essentially as by Richieri et al 1992, J Biol Chem, 267:23495-23501. However, where ligand binding to ADIFAB induces both a fluorescence intensity increase around 505 nm and a fluorescence intensity decrease around 432 nm, ligand binding to FACI-24 only causes an increase in fluorescence around 460 nm.
Derivatisation of an expression for the fluorescence value as a function of the acyl-coA concentration was done using the Scatchard equation as a starting point: [formula]
which has been used to fit the titration data.
The curves represent the best fit analysis from two independent experiment calculated and normalized as described above. The FACI-24 binding affinity increases dramatically when the acyl-chain length increases from C8 to C10 and C12, a smaller but significant drop in Kd is seen by increasing chain length from C12 to C14. C14 to C18 saturated acyl-CoA esters and C18:1-CoA binds with similar and very high affinities to FACI-24. In >0.1 M salt, FACI-24 binds acyl-CoAs with higher affinity and similar specificity as native unmodified bovine ACBP. The Kd for binding of C12-CoA and C16-CoA to native ACBP is 40 and 2.0 nM, respectively (Fulcery et al Biochemical, 1997, 325:423-428; Færgeman et al 1996, Biochemistry, 35:14118-14126). FACI-24 is highly specific for binding long-chain acyl-CoA esters.
(§1) Titration of FACI with acyl-CoAs was done using a SPEX FLOUROLOG (Industries Inc, Edison N.J., USA) with excitation at 387 nm and emission at 460 nm, with both excitation and emission slits set to 4.5 nm. FACI (0.5-4.5 uM, as indicated) was dissolved in 1.5 ml binding buffer (10 mM HEPES 150 mM NaCl, 5 mM KCl, 1 mM Na2HPO4, pH 7.4) and titrated with a 10 μM acyl-CoA dissolved in binding buffer, with or without FACI added, as indicated. Fluorescence emission values (counts per second) measured without FACI added to the ligand stock solution were corrected for titrand dilution.
Up to four parameters were fitted in this way, these were B, representing the point of saturation on the X axis, H, representing the maximum fluorescence, i.e. the fluorescence at saturating concentration of acyl-CoA, L, the minimum fluorescence value, i.e. the fluorescence of FACI-24 alone in buffer, and K, the Kd value lor the acyl-CoA in question. Initial estimates for the fittable parameters were typically: B=1, H=maximum fluorescence value measured, L=minimum fluorescence value measured (at acyl-CoA-concentration=0), and K as judged from the raw data, typically from 0.0001 uM to 0.1 uM for acyl-CoA longer than C10:0-CoA.
For each acyl-CoA at least two titrations and fittings were performed. To consider two or more titrations of the same acyl-CoA together and obtain a Kd value using all these titrations, both axes of the raw data were standardised using the fitted values of B, H and L in this way:
X axis standard=(raw X axis values)/Bfitted
Y axis standard=[(raw Y axis values)−Lfitted]/[Hfitted−Lfitted]
In this way all Y axis values should come to lie between 0 and 1 and the X axis value should be 1 at the point of saturation (FACI-24:acyl-CoA 1:1). Such adjusted data were pooled and fitted using DataFit. Typically, both H and B fitted to values close to 1 and L fitted to values close to 0. K was typically fitted to values somewhere between the two values obtained for the raw data.
This could be overcome by removing B from the fittable parameters list and instead setting it to a constant value of 1 and fitting again. This was typically done for both the raw and the standardised data.

[2] = biological target: T1, FACI-24; experiment: Fluorescence emission change of FACI-24 on titration with CoA and acyl-CoA esters; assay type: binding, bovine; settings: for Downshift in emission maximum of FACI-24: emission maximum without ligand 510 nm, excitation 400 nm
Description: (§2) Quantitative determination of binding affinities (KD) were performed by isothermal titration micro calorimetry as previously described (Faergeman et. al., 1996; Biochemistry 35, 14118-14126). Qualitative evaluation of relative binding affinities were determined by isoelectrical focusing using the Pharmacia Fast Gel system according to the prescriptions given by the manufacture. Fluorescence emission changes induced by acyl-CoA binding to badan modified protein were determined as follows: 5 μl portions of acyl-CoAs were added from stock solutions disolved in binding buffer, (10 mM Hepes, 150 mM NaCL, 1 mM NaHPO4, pH 7.4) containing 3.4 μM Badan derivatized protein to a 1 ml 3.4 μM solution of the Badan derivatized ACBP in the same buffer. The fluorescence emission was measured on a SPEX FLOUROLOG (Industries Inc, Edison N.J., USA) with excitation at 400 nm and emission scan from 400 nm to 550 nm. The concentration of acyl-CoA in the aqueous phase was determined from the fluorescence emission sensitivities at 495 and 470 nm repectively essentially by the method described by (Grynkiewickz et. al.,1985, J. Biol. Chem. 260, 3440-3450) according to which:
(§3) Fluorescence titration emission spectra from 415 nm to 550 nm (excitation at 400 nm) were performed for CoA, C4:0-, C8:0-, C12:0-, C16:0-, and C20:0-CoA with all four mutated and badan modified proteins.
The emission maximum of FACI-24 without ligand added was 510 nm and titration with CoA, C4:0-, C8:0-, C12:0-, […], C16:0- and C20:0-CoA caused 0, 16, 34, 42, 46 and 46 nm downshift in emission maximum, respectively (results not shown). C16:0-CoA induced a 5,5 fold increase in emission at 464 nm (FIG. 10).
as §1

[3] = biological target: T2, FACI53 (Bos taurus, UniProt P07107, A54C); experiment: Fluorescence emission change of FACI-53 on titration with CoA and acyl-CoA esters; assay type: binding, bovine; settings: for Fluorescence emission maximum of FACI-53 with ligand: 525 nm when no ligand present, excitation 400 nm; for Relative emission of FACI-53 at 495 nm, fold increase: emission at 495 nm
T2 construct: badan (6-bromoacetyl-2-dimethylaminonaphthalene) fluorophore on the introduced Cys-53; made in house; host or cells: E. coli BL21(DE3)pLysS, pET3a vector
T2 sequence (P07107 2-87 A54C): B1 Acyl-CoA-binding protein
Description: as §2, §3
Titration of FACI-53 dissolved in binding buffer with the above mentioned acyl-CoA esters produced a smooth downward shift in fluorescence emission maximum from 525 nm when no ligand was present to 508, 503, 490, 492, 496 and 514 with increasing concentrations of CoA, C4:0-, C8:0-, C12:0-, C16:0- and C20:0-CoA respectively.

[4] = biological target: T3, native bovine ACBP (Bos taurus, UniProt P07107); settings: literature, read-out: KD for binding to native bovine ACBP, cited from earlier work
T3 sequence (P07107 1-87): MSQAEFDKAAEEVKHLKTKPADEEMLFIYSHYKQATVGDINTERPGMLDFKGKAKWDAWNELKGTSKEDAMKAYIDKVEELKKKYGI

[5] = FACI-24 (1.5 μM) titrated with increasing CoA and acyl-CoA concentration, fitted binding curves, emission 460 nm, read-out: Kd (nM) ± S.E.

Molecule	Kd [1, 5] [nM]	Downshift in emission maximum of FACI-24 [2] [nm]	Magnitude of emission of FACI-53, fold increase [3] [fold]	Fluorescence emission maximum of FACI-53 with ligand [3] [nm]	Relative emission of FACI-53 at 495 nm, fold increase [3] [fold]	other results
CCCCCCCCCCCCCCCCCC(=O)SCCNC(=O)CCNC(=O)[C@H](O)C(C)(C)COP(=O)(O)OP(=O)(O)OC[C@H]1O[C@@H](n2cnc3c(N)ncnc32)[C@H](O)[C@@H]1OP(=O)(O)O [C18:0-CoA]	1.65 ± 0.83					
CCCCCCCCCC(=O)SCCNC(=O)CCNC(=O)[C@H](O)C(C)(C)COP(=O)(O)OP(=O)(O)OC[C@H]1O[C@@H](n2cnc3c(N)ncnc32)[C@H](O)[C@@H]1OP(=O)(O)O [C10:0-CoA]	61.8 ± 2.49					
CCCC(=O)SCCNC(=O)CCNC(=O)[C@H](O)C(C)(C)COP(=O)(O)OP(=O)(O)OC[C@H]1O[C@@H](n2cnc3c(N)ncnc32)[C@H](O)[C@@H]1OP(=O)(O)O [C4:0-CoA]	1500 ± 223	16	1.8	503	2.8	
CCCCCCCC(=O)SCCNC(=O)CCNC(=O)[C@H](O)C(C)(C)COP(=O)(O)OP(=O)(O)OC[C@H]1O[C@@H](n2cnc3c(N)ncnc32)[C@H](O)[C@@H]1OP(=O)(O)O [C8:0-CoA]	342 ± 31.9	34	2.9	490	4.8	
CCCCCCCCCCCCCC(=O)SCCNC(=O)CCNC(=O)[C@H](O)C(C)(C)COP(=O)(O)OP(=O)(O)OC[C@H]1O[C@@H](n2cnc3c(N)ncnc32)[C@H](O)[C@@H]1OP(=O)(O)O [C14:0-CoA]	1.66 ± 0.26					Kd ([1]; titration equilibrium analysis, >0.1 M salt, read-out: KD for binding to FACI24): 1.7 nM; Kd ([4]; isothermal titration microcalorimetry, >0.1 M salt): 16 nM
C18:1-CoA	0.59 ± 0.19					
CC(C)(COP(=O)(O)OP(=O)(O)OC[C@H]1O[C@@H](n2cnc3c(N)ncnc32)[C@H](O)[C@@H]1OP(=O)(O)O)[C@@H](O)C(=O)NCCC(=O)NCCS [CoASH, Coenzyme A]	2450 ± 249	0	1.1	508	1.5	Kd ([1]; read-out: Kd for binding to FACI-24): 2500 nM and 2000 nM; Fluorescence response of FACI-24 [2]: Neither FACI24 or FACI53 respond significantly; Fold increase in FACI-24 fluorescence emission at 460 nm ([2]; emission at 460 nm): 3 fold; Fluorescence response of FACI-53 ([3]; listed as CoA): hardly responded; Fluorescence response of FACI-53 ([3]; listed as free CoA): Neither FACI24 or FACI53 respond significantly; Kd [4]: 2000 nM
B1						Emission maximum of FACI53 on titration with ligand ([3]; FIG. 3): 487 nm; Fluorescence emission maximum of FACI-53, no ligand present ([3]; no ligand): 525 nm
B2						Emission maximum of FACI24 on titration with ligand ([2]; FIG. 2): 465 nm; Emission maximum of FACI-24 without ligand added ([2]; no ligand): 510 nm
